The values that follow come from patent US5120859A, “Chimeric amino acid analogues” (dated 1992).

Starred links: 1 amine or outer side, 2 acyl side, 3 side chain; linkers in the order of their positions; H or OH if unused. Non-standard residues stand in square brackets, D forms with d. Residues, ends and D or L forms follow the SMILES beside them. Pro(trans-4-guanidino) = N=C(N)N[C@H]1CN[C@H](C(=O)O)C1; Pro(cis-4-guanidino) = NC(N)=N[C@@H]1CN[C@H](C(=O)O)C1; X4 = N=C(N)NC[C@@H]1C[C@@H](C(=O)[*:2])N([*:1])C1; X1 = N=C(N)NC[C@@H]1C[C@H](C(=O)[*:2])N([*:1])C1; X2 = N=C(N)NC[C@H]1C[C@@H](C(=O)[*:2])N([*:1])C1; X5 = N=C(N)NC[C@H]1C[C@H](C(=O)[*:2])N([*:1])C1; X3 = N=C(N)N[C@H]1C[C@H](C(=O)[*:2])N([*:1])C1

The assay deals with IIbIIIa receptor (Homo sapiens, UniProt P05106+P08514). Briefly: biochemical. As to conditions: read-out: IC50 (Ratio to GRGDV IC50). As for the experimental part: Microtier plates are coated with fibrinogen (10 ug/ml) and then blocked with TACTS buffer containing 0.5% BSA. (TACTS buffer contains 20 mM Tris.HCl, pH 7.5, 0.02% sodium azide, 2 mM calcium chloride, 0.05% Tween 20, 150 mM sodium chloride.) The plate is washed with phosphate buffered saline containing 0.01% Tween 20 and a dilution of the sample to be determined added, followed by addition of solubilized IIbIIIa receptor (40 ug/ml) in TACTS, 0.5% BSA. After incubation, the plate is washed and murine monoclonal anti-platelet antibody AP3 (1 ug/ml) added. After another wash, […] IgG conjugated to horseradish peroxidase are added. A final wash is performed and developing reagent buffer (10 mg o-phenylenediamine dihydrochloride, 0.0212% hydrogen peroxide, 0.22 mM citrate, 50 mM phosphate, pH 5.0) is added and then incubated until color developed. The reaction is stopped with 1N sulfuric acid and the absorbance at 492 nm is recorded. […] The ratio represents the ratio of the IC50 of the test compound to the IC50 of the internal standard (GRGDV).
IIbIIIa receptor, sequence (P08514 32-1039): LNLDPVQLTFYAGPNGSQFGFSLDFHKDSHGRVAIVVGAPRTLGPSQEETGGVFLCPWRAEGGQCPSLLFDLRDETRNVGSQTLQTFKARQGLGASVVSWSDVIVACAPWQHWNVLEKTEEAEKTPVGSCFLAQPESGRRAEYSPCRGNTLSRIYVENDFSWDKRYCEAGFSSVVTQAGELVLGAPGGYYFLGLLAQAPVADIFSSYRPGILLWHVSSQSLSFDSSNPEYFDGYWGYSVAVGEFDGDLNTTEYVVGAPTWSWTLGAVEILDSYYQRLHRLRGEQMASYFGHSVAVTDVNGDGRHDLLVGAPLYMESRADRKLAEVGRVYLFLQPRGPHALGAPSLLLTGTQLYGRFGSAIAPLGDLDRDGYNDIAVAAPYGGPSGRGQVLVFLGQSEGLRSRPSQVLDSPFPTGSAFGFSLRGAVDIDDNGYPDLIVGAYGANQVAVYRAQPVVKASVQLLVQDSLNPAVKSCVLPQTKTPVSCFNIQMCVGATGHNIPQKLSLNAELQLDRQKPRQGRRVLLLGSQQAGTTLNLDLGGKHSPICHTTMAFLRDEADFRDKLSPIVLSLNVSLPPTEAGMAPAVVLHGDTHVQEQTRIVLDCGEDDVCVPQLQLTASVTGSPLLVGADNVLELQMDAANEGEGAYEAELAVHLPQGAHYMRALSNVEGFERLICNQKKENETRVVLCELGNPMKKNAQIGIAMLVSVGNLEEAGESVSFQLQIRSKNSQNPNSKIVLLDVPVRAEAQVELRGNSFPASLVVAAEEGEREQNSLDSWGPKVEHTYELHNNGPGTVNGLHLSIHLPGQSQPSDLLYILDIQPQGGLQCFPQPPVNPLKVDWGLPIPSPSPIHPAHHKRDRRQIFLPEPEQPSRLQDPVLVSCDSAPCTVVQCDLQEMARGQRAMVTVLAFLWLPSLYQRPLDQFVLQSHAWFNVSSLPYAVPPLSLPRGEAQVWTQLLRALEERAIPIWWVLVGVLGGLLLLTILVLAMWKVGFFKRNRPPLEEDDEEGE
IIbIIIa receptor, sequence (P05106 27-788): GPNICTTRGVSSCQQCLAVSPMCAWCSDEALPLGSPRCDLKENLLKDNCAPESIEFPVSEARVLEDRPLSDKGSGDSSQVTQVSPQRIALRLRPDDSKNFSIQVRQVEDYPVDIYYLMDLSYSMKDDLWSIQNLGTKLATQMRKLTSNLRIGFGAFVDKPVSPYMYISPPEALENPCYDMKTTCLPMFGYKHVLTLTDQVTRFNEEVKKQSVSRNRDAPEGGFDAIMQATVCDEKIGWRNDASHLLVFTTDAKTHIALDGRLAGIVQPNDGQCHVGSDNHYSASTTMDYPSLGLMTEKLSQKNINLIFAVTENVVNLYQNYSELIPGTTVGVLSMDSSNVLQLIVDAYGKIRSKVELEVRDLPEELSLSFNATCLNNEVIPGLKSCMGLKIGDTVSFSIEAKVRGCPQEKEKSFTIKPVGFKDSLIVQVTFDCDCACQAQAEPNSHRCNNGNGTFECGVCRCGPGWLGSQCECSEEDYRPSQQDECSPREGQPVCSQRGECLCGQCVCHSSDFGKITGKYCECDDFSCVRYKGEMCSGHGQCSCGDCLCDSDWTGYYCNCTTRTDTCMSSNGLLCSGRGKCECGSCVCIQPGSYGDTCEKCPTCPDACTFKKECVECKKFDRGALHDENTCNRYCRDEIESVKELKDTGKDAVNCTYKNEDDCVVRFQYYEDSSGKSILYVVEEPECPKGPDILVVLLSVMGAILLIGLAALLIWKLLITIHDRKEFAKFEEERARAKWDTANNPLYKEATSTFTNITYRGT
For the molecule `CC(C)[C@H](NC(=O)[C@H](CC(=O)O)NC(=O)CNC(=O)[C@H]1C[C@H](CNC(=N)N)CN1)C(=O)O` [##STR51##], the IC50 came out at 6.4 nM. The value for `CC(C)[C@H](NC(=O)[C@H](CC(=O)O)NC(=O)CNC(=O)[C@@H]1C[C@H](CNC(=N)N)CN1)C(=O)O` [##STR52##] was 10 nM; that for `CC(C)[C@H](NC(=O)[C@H](CC(=O)O)NC(=O)CNC(=O)[C@@H]1C[C@@H](CNC(=N)N)CN1C(=O)CN)C(=O)O` [##STR53##] (H-G[X4]GDV-OH) was 30 nM; that for `CC(C)[C@H](NC(=O)[C@H](CC(=O)O)NC(=O)CNC(=O)[C@H]1C[C@H](NC(=N)N)CN1C(=O)CN)C(=O)O` [##STR54##] (H-G[X3]GDV-OH) was 226 nM. Regarding `CC(C)[C@H](NC(=O)[C@H](CC(=O)O)NC(=O)CNC(=O)[C@@H]1C[C@H](NC(=N)N)CN1C(=O)CN)C(=O)O` [##STR55##] (H-G[Pro(cis-4-guanidino)]GDV-OH), the IC50 came to 565 nM. As for `CC(C)[C@H](NC(=O)[C@H](CC(=O)O)NC(=O)CNC(=O)[C@H]1C[C@H](CNC(=N)N)CN1C(=O)CN)C(=O)O` [##STR56##] (H-G[X5]GDV-OH), the IC50 worked out at 37 nM. On to `CC(C)[C@H](NC(=O)[C@H](CC(=O)O)NC(=O)CNC(=O)[C@H]1C[C@@H](CNC(=N)N)CN1C(=O)CN)C(=O)O` [##STR57##] (H-G[X1]GDV-OH), for which the IC50 is 25 nM.

Regarding `CC(C)[C@H](NC(=O)[C@H](CC(=O)O)NC(=O)CNC(=O)[C@@H]1C[C@H](CNC(=N)N)CN1C(=O)CN)C(=O)O` [##STR58##] (H-G[X2]GDV-OH), the IC50 was found to be 101 nM.

Turning to `CC(C)[C@H](NC(=O)[C@H](CC(=O)O)NC(=O)CNC(=O)[C@@H]1C[C@H](NC(=N)N)CN1)C(=O)O` [##STR59##] (H-[Pro(cis-4-guanidino)]GDV-OH), the IC50 was 155 nM. Consider `CC(C)[C@H](NC(=O)[C@H](CC(=O)O)NC(=O)CNC(=O)[C@@H]1C[C@@H](NC(=N)N)CN1C(=O)CN)C(=O)O` [##STR60##] (H-G[Pro(trans-4-guanidino)]GDV-OH), for which the IC50 worked out at 1700 nM.
